# From patent US7041698B2, “Hepatitis C virus inhibitors” (Bristol-Myers Squibb Company, priority 2002, dated 2006)
# Key:
# [1] = target: T1, NS3/4A BMS strain (UniProt P27958, C1454S/C1711G, species not given/STRAIN_BMS); assay: Recombinant HCV NS3/4A protease complex FRET peptide assay, BMS strain; assay type: biochemical, HCV genotype 1a; details: read-out: IC50 against the NS3/4A BMS strain in the enzyme assay
# T1 construct: fused on or other part: Three-lysine solubilising tail at the C-terminus of NS4A
# Excerpt: (§1) Recombinant HCV NS3/4A Protease Complex FRET Peptide Assay
# (§2) The purpose of this in vitro assay was to measure the inhibition of HCV NS3 protease complexes, derived from the BMS, H77C or J416S strains, as described below, by compounds of the present invention. This assay provides an indication of how effective compounds of the present invention would be in inhibiting HCV proteolytic activity.
# (§3) Serum from an HCV-infected patient was obtained from Dr. T. Wright, San Francisco Hospital. An engineered full-length cDNA (compliment deoxyribonucleic acid) template of the HCV genome (BMS strain) was constructed from DNA fragments obtained by reverse transcription-PCR (RT-PCR) of serum RNA (ribonucleic acid) and using primers selected on the basis of homology between other genotype 1a strains. From the determination of the entire genome sequence, a genotype 1a was assigned to the HCV isolate according to the classification of Simmonds et al. (See P Simmonds, K A Rose, S Graham, S W Chan, F McOmish, B C Dow, E A Follett, P L Yap and H Marsden, J. Clin. Microbiol., 31(6), 1493–1503 (1993)). […]
# [2] = target: T2, NS3/4A J4L6S strain (Hepatitis C virus genotype 1b, UniProt O92972, C1454S/C1711G); assay: Recombinant HCV NS3/4A protease complex FRET peptide assay, J4L6S strain; assay type: biochemical, HCV genotype 1b
# T2 construct: DNA encoding the recombinant HCV NS3/4A protease complex (amino acids 1027 to 1711) for these strains; His tag (inferred from pET21b vector and Ni-NTA purification); made in house; host or cells: Escherichia coli BL21 (DE3)
# Excerpt: as §1, §2, §3
# T2 sequence (O92972 1027-1711 C1454S/C1711G): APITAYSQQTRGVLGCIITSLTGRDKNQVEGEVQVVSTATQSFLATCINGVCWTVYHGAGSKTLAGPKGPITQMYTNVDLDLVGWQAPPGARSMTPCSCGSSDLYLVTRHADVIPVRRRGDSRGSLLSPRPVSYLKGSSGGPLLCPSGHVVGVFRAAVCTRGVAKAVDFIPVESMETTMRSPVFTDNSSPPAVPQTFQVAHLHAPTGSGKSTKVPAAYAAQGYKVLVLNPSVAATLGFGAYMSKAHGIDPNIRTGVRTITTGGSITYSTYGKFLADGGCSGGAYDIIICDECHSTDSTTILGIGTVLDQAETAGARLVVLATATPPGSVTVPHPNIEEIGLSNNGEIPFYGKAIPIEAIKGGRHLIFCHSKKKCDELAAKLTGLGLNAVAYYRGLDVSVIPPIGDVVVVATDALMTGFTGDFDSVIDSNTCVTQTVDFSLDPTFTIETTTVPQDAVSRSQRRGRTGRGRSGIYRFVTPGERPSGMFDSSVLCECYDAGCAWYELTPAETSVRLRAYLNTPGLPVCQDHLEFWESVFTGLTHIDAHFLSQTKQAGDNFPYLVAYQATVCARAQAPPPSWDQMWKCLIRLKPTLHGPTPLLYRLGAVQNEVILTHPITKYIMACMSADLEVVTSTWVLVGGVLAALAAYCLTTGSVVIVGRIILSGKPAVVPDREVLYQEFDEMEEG
smiles,measurement,setting,value
"C=CC1C[C@]1(NC(=O)[C@@H]1C[C@@H](OC(=O)Nc2ccccc2-c2ccccc2)CN1C(=O)[C@@H](NC(=O)OC(C)(C)C)C(C)(C)C)C(=O)NS(=O)(=O)C1CC1 (stereo partly drawn) [Compound 8, BocNH-P3(t-BuGly)-P2(Hyp(O—CO(NH-biphen-2-yl)))-P1(1R,2S VinylAcca)—CONHSO2Cyclopropane]",IC50,[1],0.051 µM
same,IC50,[2],0.0095 µM
